Where no end group is shown, it is not given here.
What was measured:
[1] = tested on: IL-1β production from human peripheral blood mononuclear cells (PBMC); experiment: IL-1β production from human PBMC, Cytometric Bead Array; assay type: cell-based; details: Table 18
Method: (§1) Peripheral blood was drawn from healthy volunteers (with approval from the relevant ethical committee in Denmark). Heparinized blood was diluted 1/1 v/v with RPMI and were subjected to Ficoll density centrifugation within 2 h of drawing. Plasma was collected from the top from individual donors and was kept on ice until it was used at 2% in the culture medium (autologous culture medium). Isolated PBMC were resuspended in autologous culture medium and seeded in 96-well culture plates with 255.000 cells per well in a total of 200 μl. […] The concentrations used for stimulation were optimized on 3 different donors in initial experiments, for LPS two different concentrations were used to be sure to be on a cytokine level that is possible to modulate. In some experiments PBMC were treated with Dexamethason and Indomethacin alone and together with LPS or LTA as a control on downregulation of inflammatory cytokines. The supernatants were collected after incubation at 37° C. for 24 hours, and stored at −80° C. until cytokine measurement. Viability was measured by Alamar Blue (Biosource, DALL 1100) in all experiments and in some cases also by MTS (Promega) according to manufacturer's instruction and was in some experiments also judged by counting of the cells by a Nucleocounter.
(§2) Cytokine production in supernatants was measured by flow cytometry with a human inflammation cytometric bead array (CBA) according to manufacturer's instructions (BD) on a FACSarray flow cytometer. The following cytokines were measured: IL-8, IL-1β, IL-10, TNF, IL-12 p70, IL-6. In some experiments, cytokines were measured by ELISA kits from R&D systems (IL-10, TNF-α, IL-1β) according to the manufacturer' instruction.

PBMC = PBMC viability, Alamar Blue; assay type: cell-based, human; details: human PBMC, Example 2
Method: as §1

[2] = tested on: IL-10 production from human peripheral blood mononuclear cells (PBMC); experiment: IL-10 production from human PBMC, Cytometric Bead Array; assay type: cell-based; details: Table 17
Method: as §1, §2

[3] = tested on: TNF production from human peripheral blood mononuclear cells (PBMC); experiment: TNF production from human PBMC, Cytometric Bead Array; assay type: cell-based
Method: as §1, §2

[4] = tested on: TNF production from mouse peripheral blood mononuclear cells (PBMC); experiment: TNF production from mouse PBMC, Cytometric Bead Array; assay type: cell-based
Method: Mouse peripheral blood mononuclear cells were isolated from blood of ten NMRI mice. In short, heparinized blood was diluted 1/1 v/v with RPMI and subjected to Ficoll density centrifugation within 2 h of drawing. Plasma was collected from the top and discarded. Isolated PBMC were resuspended in culture medium (RPMI 1640 (Gibco, 42401) w/1% penicillin and streptomycin and 1% L-Glutamine) and seeded in 96-well culture plates with 115.500 cells per well in a total of 200 μl. […] The supernatants were collected after incubation at 37° C. for 24 hours, and stored at −80° C. until cytokine measurement.
Cytokine production in supernatants was measured by flow cytometry with a mouse inflammation cytometric bead array (CBA) according to manufacturer's instructions (BD) on a FACSarray flow cytometer.

[5] = LPS 0.6 ng/ml, test compound 1 μg/ml
[6] = LPS 20 ng/ml, test compound 1 μg/ml
[7] = LPS 0.6 ng/ml, test compound 1 μg/ml, Table 16
[8] = LPS 20 ng/ml, test compound 1 μg/ml, Table 16
[9] = Medium, test compound 1 μg/ml, Table 16
[10] = LPS 0.6 ng/ml, test compound 10 μg/ml
[11] = LPS 20 ng/ml, test compound 10 μg/ml
[12] = LPS 0.6 ng/ml, test compound 10 μg/ml, Table 16
[13] = LPS 20 ng/ml, test compound 10 μg/ml, Table 16
[14] = Medium, test compound 10 μg/ml, Table 16
[15] = LPS 0.6 ng/ml, test compound 40 μg/ml
[16] = LPS 20 ng/ml, test compound 40 μg/ml
[17] = LPS 0.6 ng/ml, test compound 40 μg/ml, Table 16
[18] = LPS 20 ng/ml, test compound 40 μg/ml, Table 16

Substance: hBD3: human beta defensin 3, SEQ ID NO:3; prepared using chemical synthesis, Peptide Institute Inc. (GIINTLQKYYCRVRGGRCAVLSCLPKEEQTGKCSTRGRKCCRRKK; ends and bridges not checked; cysteine pairing not given here; listed as Homo sapiens)
- IL-1β [1, 5]: 331 pg/mL
- IL-1β % of control [1, 5]: 45%
- IL-1β [1, 6]: 568 pg/mL
- IL-1β % of control [1, 6]: 22%
- IL-1β ([1]; Medium, test compound 1 μg/ml): 0 pg/mL
- toxicity to the cells (PBMC; 10 μg/ml and 40 μg/ml): toxic to the cells
- IL-10 [2, 5]: 71 pg/mL
- IL-10 % of control [2, 5]: 107%
- IL-10 % of control [2, 6]: 137%
- IL-10 ([2]; Medium, test compound 1 μg/ml): 0 pg/mL
- TNF [3, 7]: 528 pg/mL
- TNF % of control [3, 7]: 73%
- TNF [3, 8]: 451 pg/mL
- TNF % of control [3, 8]: 21%
- TNF [3, 9]: 0 pg/mL

Substance: hBD4 variant: consists of amino acids 3-39 of hBD4, SEQ ID NO:5; prepared using chemical synthesis (ELDRICGYGTARCRKKCRSQEYRIGRCPNTYACCLRK; hBD-4 variant consisting of amino acids 3-39 of SEQ ID NO4)
- IL-1β [1, 5]: 286 pg/mL
- IL-1β % of control [1, 5]: 39%
- IL-1β [1, 10]: 163 pg/mL
- IL-1β % of control [1, 10]: 22%
- IL-1β [1, 6]: 1004 pg/mL
- IL-1β % of control [1, 6]: 40%
- IL-1β [1, 11]: 463 pg/mL
- IL-1β % of control [1, 11]: 18%
- IL-1β ([1]; Medium, test compound 1 μg/ml): 0 pg/mL
- IL-1β ([1]; Medium, test compound 10 μg/ml): 0 pg/mL
- toxicity to the cells (PBMC; 40 μg/ml): toxic to the cells
- IL-10 [2, 5]: 90 pg/mL
- IL-10 % of control [2, 5]: 136%
- IL-10 [2, 10]: 92 pg/mL
- IL-10 % of control [2, 10]: 139%
- IL-10 % of control [2, 6]: 157%
- IL-10 [2, 11]: 187 pg/mL
- IL-10 % of control [2, 11]: 168%
- IL-10 ([2]; Medium, test compound 1 μg/ml): 0 pg/mL
- IL-10 ([2]; Medium, test compound 10 μg/ml): 0 pg/mL
- TNF [3, 7]: 468 pg/mL
- TNF % of control [3, 7]: 64%
- TNF [3, 12]: 211 pg/mL
- TNF % of control [3, 12]: 29%
- TNF [3, 8]: 778 pg/mL
- TNF % of control [3, 8]: 36%
- TNF [3, 13]: 139 pg/mL
- TNF % of control [3, 13]: 6%
- TNF [3, 9]: 0 pg/mL
- TNF [3, 14]: 0 pg/mL

Substance: hBD1: human beta defensin 1, SEQ ID NO:1; prepared using chemical synthesis, Peptide Institute Inc. (DHYNCVSSGGQCLYSACPIFTKIQGTCYRGKAKCCK; ends and bridges not checked; cysteine pairing not given here; listed as Homo sapiens)
- IL-1β [1, 5]: 512 pg/mL
- IL-1β % of control [1, 5]: 69%
- IL-1β [1, 10]: 401 pg/mL
- IL-1β % of control [1, 10]: 54%
- IL-1β [1, 15]: 302 pg/mL
- IL-1β % of control [1, 15]: 41%
- IL-1β [1, 6]: 2087 pg/mL
- IL-1β % of control [1, 6]: 82%
- IL-1β [1, 11]: 1913 pg/mL
- IL-1β % of control [1, 11]: 75%
- IL-1β [1, 16]: 1599 pg/mL
- IL-1β % of control [1, 16]: 63%
- IL-1β ([1]; Medium, test compound 1 μg/ml): 0 pg/mL
- IL-1β ([1]; Medium, test compound 10 μg/ml): 0 pg/mL
- IL-1β ([1]; Medium, test compound 40 μg/ml): 0 pg/mL
- IL-10 [2, 5]: 71 pg/mL
- IL-10 % of control [2, 5]: 108%
- IL-10 [2, 10]: 76 pg/mL
- IL-10 % of control [2, 10]: 114%
- IL-10 [2, 15]: 69 pg/mL
- IL-10 % of control [2, 15]: 104%
- IL-10 [2, 6]: 95 pg/mL
- IL-10 % of control [2, 6]: 85%
- IL-10 [2, 11]: 100 pg/mL
- IL-10 % of control [2, 11]: 90%
- IL-10 [2, 16]: 113 pg/mL
- IL-10 % of control [2, 16]: 102%
- IL-10 ([2]; Medium, test compound 1 μg/ml): 0 pg/mL
- IL-10 ([2]; Medium, test compound 10 μg/ml): 0 pg/mL
- IL-10 ([2]; Medium, test compound 40 μg/ml): 0 pg/mL
- TNF [3, 7]: 474 pg/mL
- TNF % of control [3, 7]: 65%
- TNF [3, 12]: 203 pg/mL
- TNF % of control [3, 12]: 28%
- TNF [3, 17]: 91 pg/mL
- TNF % of control [3, 17]: 13%
- TNF [3, 8]: 1395 pg/mL
- TNF % of control [3, 8]: 64%
- TNF [3, 13]: 1311 pg/mL
- TNF % of control [3, 13]: 61%
- TNF [3, 18]: 999 pg/mL
- TNF % of control [3, 18]: 46%
- TNF [3, 9]: 1 pg/mL
- TNF [3, 14]: 0 pg/mL
- TNF ([3]; Medium, test compound 40 μg/ml, Table 16): 0 pg/mL

Substance: mBD3: mouse beta defensin 3, SEQ ID NO:6; produced recombinantly by the hBD2 protocol (KINNPVSCLRKGGRCWNRCIGNTRQIGSCGVPFLKCCKRK; ends and bridges not checked; cysteine pairing not given here; listed as Mus musculus)
- TNF ([4]; LPS 20 ng/ml, treatment 1 μg/ml): 1600 pg/mL
- TNF ([4]; LPS 20 ng/ml, treatment 10 μg/ml): 297 pg/mL
- TNF ([4]; LPS 20 ng/ml, treatment 100 μg/ml): 195 pg/mL
- TNF ([4]; Medium, treatment 1 μg/ml): 347 pg/mL
- TNF ([4]; Medium, treatment 10 μg/ml): 180 pg/mL
- TNF ([4]; Medium, treatment 100 μg/ml): 182 pg/mL
- TNF ([3]; LPS 20 ng/ml, treatment 1 μg/ml, Table 21): 384 pg/mL
- TNF ([3]; LPS 20 ng/ml, treatment 10 μg/ml, Table 21): 51 pg/mL
- TNF ([3]; LPS 20 ng/ml, treatment 100 μg/ml, Table 21): 166 pg/mL
- TNF ([3]; Medium, treatment 1 μg/ml, Table 21): 2 pg/mL
- TNF ([3]; Medium, treatment 10 μg/ml, Table 21): 2 pg/mL
- TNF ([3]; Medium, treatment 100 μg/ml, Table 21): 39 pg/mL

Source: patent US20100016232A1, “Treatment Of Inflammatory Diseases With Mammal Beta Defensins” (Novozymes A/S, priority 2008, published 2010)
